From the NIST ThermoML archive (doi:10.1021/je8002207)
± gives the expanded uncertainty stated by the source.

What was measured:
[1] = Molar enthalpy of transition or fusion; settings: Crystal; DSC
[2] = Crystal; DTA

Structure (SMILES) | Molar enthalpy of transition or fusion [1] [kcal/mol] | Normal melting temperature [2] [°C]
CN[C@@]1(c2ccccc2Cl)CCCCC1=O [(R)-ketamine] | 6.86 ± 0.198 | 121.0 ± 0.5
CN[C@]1(c2ccccc2Cl)CCCCC1=O [(S)-ketamine] | 6.86 ± 0.198 | 121.0 ± 0.5
